This is an account of results in patent US6087334A, “Anti-diabetic peptides” (Amylin Pharmaceuticals, Inc., priority 1998, dated 2000).

The structures appear in SMILES notation. Where a SMILES comes first, the peptide text is derived from it. Bridges are numbered along the chain shown (N, C = ends).

The IC50 is the point on the concentration scale where inhibition reaches its midpoint.

In the test the target is T1, C1a receptor (C1a-type calcitonin receptor) (Rattus norvegicus, UniProt P32214).
T1 construct: expressed in transfected cells
T1 sequence (P32214 25-479 isoform P32214-2 limits assumed): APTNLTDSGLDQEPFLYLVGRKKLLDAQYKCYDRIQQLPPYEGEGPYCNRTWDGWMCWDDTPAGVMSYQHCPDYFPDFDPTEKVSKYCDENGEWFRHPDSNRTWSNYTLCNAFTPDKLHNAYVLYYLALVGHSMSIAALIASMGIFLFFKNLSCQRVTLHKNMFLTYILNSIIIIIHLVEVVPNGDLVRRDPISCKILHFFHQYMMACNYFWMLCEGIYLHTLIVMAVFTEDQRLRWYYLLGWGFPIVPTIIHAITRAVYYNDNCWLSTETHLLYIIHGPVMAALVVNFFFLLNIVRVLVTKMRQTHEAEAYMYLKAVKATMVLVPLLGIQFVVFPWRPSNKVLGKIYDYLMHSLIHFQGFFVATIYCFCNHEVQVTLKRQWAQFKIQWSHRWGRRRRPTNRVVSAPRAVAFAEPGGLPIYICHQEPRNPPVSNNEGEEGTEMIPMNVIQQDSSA
As to the kind of experiment: C1a/293 competitive binding, displacement of [125I]-human calcitonin (Example C). As to conditions: HEK293 plasma membranes (C1a/293), [125I]-human calcitonin 20 pM. On the technique in general: Displacement assays read how much labelled ligand stays bound in the presence of the test substance.
In the case of `CC(C)C[C@H](NC(=O)[C@H](CCCNC(=N)N)NC(=O)[C@H](C)NC(=O)[C@@H](NC(=O)[C@H](C)NC(=O)[C@@H]1CSSC[C@H](NC(=O)[C@@H](N)CCCCN)C(=O)N[C@@H](CC(N)=O)C(=O)N[C@@H]([C@@H](C)O)C(=O)N[C@@H](C)C(=O)N[C@@H]([C@@H](C)O)C(=O)N1)[C@@H](C)O)C(=O)N[C@@H](C)C(=O)N[C@@H](C)C(=O)N[C@@H](Cc1ccccc1)C(=O)N[C@@H](CC(C)C)C(=O)N[C@@H](C)C(=O)N[C@@H](CCCNC(=N)N)C(=O)N[C@@H](CO)C(=O)N[C@@H](CO)C(=O)NCC(=O)N[C@@H](Cc1ccc(O)cc1)C(N)=O` [Example 1] (H-KCNTATCATARLAAFLARSSGY-NH2; disulfide 2-7), the half-maximal inhibitory concentration (IC50) is 0.093 nM.

Turning to `CC(C)C[C@H](NC(=O)[C@H](CCCNC(=N)N)NC(=O)[C@H](C)NC(=O)[C@@H](NC(=O)[C@H](C)NC(=O)[C@@H]1CSSC[C@H](N)C(=O)N[C@@H](CC(N)=O)C(=O)N[C@@H]([C@@H](C)O)C(=O)N[C@@H](C)C(=O)N[C@@H]([C@@H](C)O)C(=O)N1)[C@@H](C)O)C(=O)N[C@@H](C)C(=O)N[C@@H](C)C(=O)N[C@@H](Cc1ccccc1)C(=O)N[C@@H](CC(C)C)C(=O)N[C@@H](C)C(=O)N[C@@H](CCCNC(=N)N)C(=O)N[C@@H](CO)C(N)=O` [Example 3] (H-CNTATCATARLAAFLARS-NH2; disulfide 1-6), the IC50 was 0.19 nM.

Take `CC(C)C[C@H](NC(=O)[C@H](CCCNC(=N)N)NC(=O)[C@H](C)NC(=O)[C@@H](NC(=O)[C@H](C)NC(=O)[C@@H]1CSSC[C@H](NC(=O)[C@@H](N)CCCCN)C(=O)N[C@@H](CC(N)=O)C(=O)N[C@@H]([C@@H](C)O)C(=O)N[C@@H](C)C(=O)N[C@@H]([C@@H](C)O)C(=O)N1)[C@@H](C)O)C(=O)N[C@@H](C)C(=O)N[C@@H](CC(N)=O)C(=O)N[C@@H](Cc1ccccc1)C(=O)N[C@@H](CC(C)C)C(=O)N[C@H](C(=O)N[C@@H](CCCNC(=N)N)C(=O)N[C@@H](CO)C(=O)N[C@@H](CO)C(=O)NCC(=O)N[C@@H](Cc1ccc(O)cc1)C(N)=O)C(C)C` [Example 5] (H-KCNTATCATARLANFLVRSSGY-NH2; disulfide 2-7): the 50% inhibitory concentration (IC50) was determined as 1.4 nM.

As for `CC(C)C[C@H](NC(=O)[C@H](CCCNC(=N)N)NC(=O)[C@H](C)NC(=O)[C@@H](NC(=O)[C@H](C)NC(=O)[C@H](C)NC(=O)[C@@H](NC(=O)[C@H](CO)NC(=O)[C@@H](N)CC(C)C)[C@@H](C)O)[C@@H](C)O)C(=O)N[C@@H](C)C(=O)N[C@@H](C)C(=O)N[C@@H](Cc1ccccc1)C(=O)N[C@@H](CC(C)C)C(=O)N[C@@H](C)C(=O)N[C@@H](CCCNC(=N)N)C(=O)N[C@@H](CO)C(N)=O` [Example 6] (H-LSTAATARLAAFLARS-NH2), the IC50 came to 1.4 nM.
